Assay results taken from patent US20260041093A1, “Ionic Derivatives Of Aromatic Carboxylic Acid For Use As Plant Stimulants, Method For Stimulating Plants And Use Of These Derivatives For Manufacturing Compositions For Stimulating Plants” (FUNDACJA UNIWERSYTETU IM. ADAMA MICKIEWICZA W POZNANIU, priority 2022, published 2026).
Where two headings read alike, the source gives them in different places.

Columns and labels:
tomato = assay: Greenhouse tomato sprayed three times: yield, health-promoting substances, leaf chlorophyll (Example 2); assay type: in vivo; conditions: 80 mg/L, benzothiadiazole salt 30 mg/L, chitosan lactate 50 mg/L
Method: Biostimulant properties were evaluated for the following stimulants: […] The evaluation of stimulant properties included the influence of tested substances on tomato yield, content of health-promoting substances in yield and chlorophyll content in tomato leaves. […] The untreated control plants were sprayed with distilled water. During the experiment, total yield weight, commercial and non-commercial yield and average commercial fruit weight, number of fruits per plant and average fruit weight per plant were evaluated. […] Chlorophyll was measured before each treatment and one day after each treatment using Minolta's SPAD-502 chlorophyll meter.

tomato seedlings = assay: Tomato seedlings in pots sprayed 3 times: height, fresh and dry weight, chlorophyll (Example 3); assay type: in vivo; conditions: 80 mg/L, benzothiadiazole salt 30 mg/L
Text: Tomato seedlings (12 according to development scale BBCH) were planted into pots with peat substrate (P9 pots having 0.5 l). Plant pots were placed in greenhouse and cultivated for a 1 and a half month. Plants were sprayed with tested substance 3 times, in 10-day interval. […] 2-methoxyethyl(trimethyl)-ammonium benzo[1,2,3]thiadiazole-7-carboxylate; 3. […] 2-methoxyethyl(trimethyl)ammonium 3-chlorosalicylate; 7. 2-ethoxyethyl(trimethyl)ammonium 3-chlorosalicylate; 8. ethyl(trimethyl)ammonium 3-chlorosalicylate at a concentration od 80 mg/l. Plants were sprayed with tested substances three times at 10-day intervals. Plants in peat substrate treated with water only were the control. During the course of the experiment, the height of the plants was measured, and at the end the fresh and dry weight of the aboveground part was evaluated. Moreover chlorophyll content was measured. The experiment was conducted in 4 repetitions with 5 plants in each (a total of 20 plants per each variant of treatment).

broccoli = assay: Broccoli seedlings in pots sprayed: height, fresh and dry weight (Example 4); assay type: in vivo
Method: Broccoli seedling were planted into pots with peat substrate (P9 pots having 0.5 l). Pots were placed in greenhouse and cultivated for a 1 month. […] 2-fluoroethyl(trimethyl)ammonium benzo[1,2,3]thiadiazole-7-carboxylate; 3. 2-bromoethyl(trimethyl)ammonium benzo[1,2,3]thiadiazole-7-carboxylate; 4. 2-chloroethyl(trimethyl)ammonium benzo[1,2,3]thiadiazole-7-carboxylate; 5. 2-iodoethyl(trimethyl)ammonium benzo[1,2,3]thiadiazole-7-carboxylate used at a concentration of 30 mg/L and 6. 2-hydroxyethyl(trimethyl)ammonium 3-chlorosalicylate (tested also at a concentration of 50 mg/L); 7. 3-chlorosalicylate 2-fluoroethyl(trimethyl)ammonium; 8. 3-chlorosalicylate 2-bromoethyl(trimethyl)ammonium; 9. 3-chlorosalicylate 2-chloroethyl(trimethyl)ammonium; 10. 3-chlorosalicylate 2-iodoethyl(trimethyl)ammonium used at a concentration of 80 mg/L. Plants were sprayed with tested substances three times at 10-day intervals. Plants treated with water only were the untreated control. During the course of the experiment, the height of the plants was measured, and at the end the fresh and dry weight of the aboveground part was evaluated. The experiment was conducted in 4 repetitions with 5 plants in each (a total of 20 plants per each combination).

winter rapeseed = conditions: for more aboveground dry matter compared to control: last harvest date, fully ripe
Text: The experiment was established using the long strip method in four repetitions. The dimensions of the plots at establishment were 96 m^2 gross, while the harvestable area was 23.25 m^2 net.
In the experiment, uniform NPK fertilization was applied, using both bulk and liquid fertilizers.
The following facilities were included in the experiment: • 1. control, no stimulant application, standard fungicide protection • 2. stimulant applied at stage 31-32 according to the BBCH development scale, standard fungicide protection • 3. stimulant applied at stage 53-55 according to the BBCH development scale, no fungicide protection

[1] = 3-chlorosalicylate 80 mg/L, benzothiadiazole salt 30 mg/L
[2] = BBCH 32, standard fungicide protection, 80 mg/L, benzothiadiazole salt 25 mg/L
[3] = BBCH 32, stimulant only, 80 mg/L, benzothiadiazole salt 25 mg/L
[4] = BBCH 55, standard fungicide protection, 80 mg/L, benzothiadiazole salt 25 mg/L
[5] = BBCH 55, without fungicide, 80 mg/L, benzothiadiazole salt 25 mg/L
[6] = first sampling date, stimulant at BBCH 31-32, no fungicide yet, 80 mg/L, benzothiadiazole salt 25 mg/L
[7] = second date, regardless of cultivation technology, 80 mg/L, benzothiadiazole salt 25 mg/L

C[N+](C)(C)CCO.O=C([O-])c1cccc2nnsc12 was tested. Which “Chlorophyll content (SPAD), a day after treatment #1” value (tomato) did it give?
The value was 63.5 b.

What about the “Chlorophyll content (SPAD), a day after treatment #2” value (tomato) of the same molecule?
Its value is 61.3 b.

And the “Chlorophyll content (SPAD), a day after treatment #3” value (tomato)?
Its value is 63.2 b.

And the “Chlorophyll content (SPAD), Treatment #1” value (tomato; before treatment #1)?
The value was 51.2 a.

What about the “Chlorophyll content (SPAD), Treatment #2” value (tomato; before treatment #2) of the same molecule?
Its value is 51.4 a.

And the “Chlorophyll content (SPAD), Treatment #3” value (tomato; before treatment #3)?
The value was 51.1 a.

What about the “Average fruit weight per plant” value (tomato; spray 3x) of the same molecule?
Its value is 148.70 b g.

And the “Average weight of marketable fruit” value (tomato; spray 3x)?
Its value is 26.13 b kg/m^2.

What about the Commercial yield (tomato; spray 3x) of the same molecule?
The Commercial yield was 18.13 b kg/m^2.

What about the “Number of fruits per plant” value (tomato; spray 3x) of the same molecule?
The value was 4.17 b.

What about the Total yield (tomato; spray 3x) of the same molecule?
The Total yield was 18.83 b kg/m^2.

What about the Calcium (tomato; tomato fruits) of the same molecule?
The Calcium was 91.4 a mg/kg.

What about the Lycopene (tomato; tomato fruits) of the same molecule?
The Lycopene was 36.5 b mg/kg.

What about the Magnesium (tomato; tomato fruits) of the same molecule?
The Magnesium was 106.3 b mg/kg.

And the “Vit. C” value (tomato; tomato fruits)?
Its value is 200.1 c mg/kg.

What about the “Vit. E” value (tomato; tomato fruits) of the same molecule?
The value was 25.9 b mg/kg.

What about the “°Brix (sugar content of the liquid expressed in degree of Brix)” value (tomato; tomato fruits) of the same molecule?
Its value is 5.92 b g.

And the “Average plant height, before second treatment” value (tomato seedlings; chitosan lactate 50 mg/l)?
The value was 146.7 b mm.

And the “Average plant height, before third treatment” value (tomato seedlings; chitosan lactate 50 mg/l)?
Its value is 337.1 b mm.

And the “Average plant height, initial height, before first treatment” value (tomato seedlings; chitosan lactate 50 mg/l)?
The value was 60.5 a mm.

What about the “Chlorophyll content (SPAD), a day after treatment #1” value (tomato seedlings; chitosan lactate 50 mg/l) of the same molecule?
The value was 76.1 b.

And the “Chlorophyll content (SPAD), a day after treatment #2” value (tomato seedlings; chitosan lactate 50 mg/l)?
The value was 81.3 c.

What about the “Chlorophyll content (SPAD), a day after treatment #3” value (tomato seedlings; chitosan lactate 50 mg/l) of the same molecule?
Its value is 78.2 b.

And the Plant height increase (tomato seedlings; chitosan lactate 50 mg/l)?
Its Plant height increase is 276.6 b mm.

And the Average dry mass (tomato seedlings; above-ground part)?
The Average dry mass was 87.5 b g.

And the Average fresh mass (tomato seedlings; above-ground part)?
The Average fresh mass was 333.5 b g.

And the “Chlorophyll content (SPAD), Treatment #1” value (tomato seedlings; before treatment #1, chitosan lactate 50 mg/l)?
The value was 49.6 a.

And the “Chlorophyll content (SPAD), Treatment #2” value (tomato seedlings; before treatment #2, chitosan lactate 50 mg/l)?
The value was 47.5 a.

And the “Chlorophyll content (SPAD), Treatment #3” value (tomato seedlings; before treatment #3, chitosan lactate 50 mg/l)?
The value was 50.1 a.

What about the Average dry mass (broccoli; [1]) of the same molecule?
Its Average dry mass is 0.7 b g.

And the Average fresh mass (broccoli; [1])?
Its Average fresh mass is 7.8 c g.

And the “Average plant height, initial height, before first treatment” value (broccoli; [1])?
The value was 39.2 c mm.

And the “Average plant height, second treatment” value (broccoli; [1])?
The value was 187.2 b mm.

What about the “Average plant height, third treatment” value (broccoli; [1]) of the same molecule?
The value was 215.7 b mm.

And the Plant height increase (broccoli; [1])?
The Plant height increase was 176.5 b mm.

What about the “number of leaves developed” value (broccoli; FIG. 2, treated once, 5 mg/L, control plant developed 3 leaves) of the same molecule?
The value was 4.

What about the “increase in calcium uptake” value (winter rapeseed; [2]) of the same molecule?
Its value is 5%.

And the “increase in magnesium uptake” value (winter rapeseed; [2])?
The value was 5%.

What about the “increase in nitrogen uptake” value (winter rapeseed; [2]) of the same molecule?
Its value is 5%.

What about the “increase in phosphorus uptake” value (winter rapeseed; [2]) of the same molecule?
Its value is 5%.

What about the “increase in potassium uptake” value (winter rapeseed; [2]) of the same molecule?
Its value is 6%.

And the “increase in calcium uptake” value (winter rapeseed; [3])?
Its value is 9%.

And the “increase in magnesium uptake” value (winter rapeseed; [3])?
The value was 11%.

And the “increase in nitrogen uptake” value (winter rapeseed; [3])?
The value was 8%.

What about the “increase in phosphorus uptake” value (winter rapeseed; [3]) of the same molecule?
Its value is 9%.

And the “increase in potassium uptake” value (winter rapeseed; [3])?
The value was 7%.

And the higher fat content (winter rapeseed; BBCH 32, with fungicide, 80 mg/L, benzothiadiazole salt 25 mg/L)?
Its higher fat content is 6%.

What about the higher fat content (winter rapeseed; BBCH 32, without fungicide, 80 mg/L, benzothiadiazole salt 25 mg/L) of the same molecule?
Its higher fat content is 8%.

What about the “increase in calcium uptake” value (winter rapeseed; [4]) of the same molecule?
Its value is 10%.

And the “increase in fat content” value (winter rapeseed; [4])?
Its value is 6%.

And the “increase in magnesium uptake” value (winter rapeseed; [4])?
The value was 9%.

And the “increase in nitrogen uptake” value (winter rapeseed; [4])?
Its value is 9%.

And the “increase in phosphorus uptake” value (winter rapeseed; [4])?
The value was 11%.

And the “increase in potassium uptake” value (winter rapeseed; [4])?
The value was 8%.

And the “increase in calcium uptake” value (winter rapeseed; [5])?
The value was 9%.

And the “increase in fat content” value (winter rapeseed; [5])?
Its value is “increase”.

And the “increase in magnesium uptake” value (winter rapeseed; [5])?
Its value is 13%.

What about the “increase in nitrogen uptake” value (winter rapeseed; [5]) of the same molecule?
The value was 12%.

And the “increase in phosphorus uptake” value (winter rapeseed; [5])?
The value was 9%.

What about the “increase in potassium uptake” value (winter rapeseed; [5]) of the same molecule?
Its value is 8%.

What about the “seed yields higher compared to control” value (winter rapeseed; both fungicide and stimulant treatments, 80 mg/L, benzothiadiazole salt 25 mg/L) of the same molecule?
The value was 12%.

And the “chlorophyll content, differences between the tested objects” value (winter rapeseed; first measurement date)?
Its value is “no differences were observed”.

What about the “more biomass (dry weight) compared to control” value (winter rapeseed; [6]) of the same molecule?
The value was 29%.

And the “more biomass (fresh weight) compared to control” value (winter rapeseed; [6])?
Its value is 28%.

And the “more aboveground dry matter compared to control” value (winter rapeseed; only the stimulant, 80 mg/L, benzothiadiazole salt 25 mg/L)?
The value was 32%.

And the “more aboveground dry matter compared to control” value (winter rapeseed; with fungicide protection, 80 mg/L, benzothiadiazole salt 25 mg/L)?
Its value is 38%.

What about the “more dry weight compared to control, on average” value (winter rapeseed; [7]) of the same molecule?
The value was 26%.

And the “more fresh weight compared to control, on average” value (winter rapeseed; [7])?
The value was 24%.

And the “weight of one thousand seeds higher compared to control” value (winter rapeseed; tested combinations, 80 mg/L, benzothiadiazole salt 25 mg/L)?
Its value is 12%.

And the “more chlorophyll in the leaves (SPAD) compared to control” value (“more chlorophyll … compared to control” for short) (winter rapeseed; with a fungicide, printed 'first date' (of second and third measurement dates), 80 mg/L, benzothiadiazole salt 25 mg/L)?
Its value is 6%.

And the “more chlorophyll … compared to control” value (winter rapeseed; with a fungicide, printed 'second date', 80 mg/L, benzothiadiazole salt 25 mg/L)?
The value was 8%.

What about the “more chlorophyll … compared to control” value (winter rapeseed; without a fungicide, printed 'first date', 80 mg/L, benzothiadiazole salt 25 mg/L) of the same molecule?
Its value is 8%.

What about the “more chlorophyll … compared to control” value (winter rapeseed; without a fungicide, printed 'second date', 80 mg/L, benzothiadiazole salt 25 mg/L) of the same molecule?
The value was 12%.

And the “seed yields higher compared to control” value (winter rapeseed; without fungicide protection, stimulant at BBCH 31-32, 80 mg/L, benzothiadiazole salt 25 mg/L)?
Its value is 9%.
